How the values were obtained:
[1] = target: T1, Bone morphogenetic protein 1 (Homo sapiens, UniProt P13497); experiment: Inhibition of C-terminal FLAG-6x-His epitope tagged and N-terminal human RAGE signal sequence tagged human BMP1 (23 to 721 amino acids) expressed in CHO-E1A cells pre-incubated for 10 mins before promyostatin peptide substrate addition and measured after 60 mins using 0.5 nM BMP1 by FRET based assay; format: cell-based
T1 sequence (P13497 whole entry): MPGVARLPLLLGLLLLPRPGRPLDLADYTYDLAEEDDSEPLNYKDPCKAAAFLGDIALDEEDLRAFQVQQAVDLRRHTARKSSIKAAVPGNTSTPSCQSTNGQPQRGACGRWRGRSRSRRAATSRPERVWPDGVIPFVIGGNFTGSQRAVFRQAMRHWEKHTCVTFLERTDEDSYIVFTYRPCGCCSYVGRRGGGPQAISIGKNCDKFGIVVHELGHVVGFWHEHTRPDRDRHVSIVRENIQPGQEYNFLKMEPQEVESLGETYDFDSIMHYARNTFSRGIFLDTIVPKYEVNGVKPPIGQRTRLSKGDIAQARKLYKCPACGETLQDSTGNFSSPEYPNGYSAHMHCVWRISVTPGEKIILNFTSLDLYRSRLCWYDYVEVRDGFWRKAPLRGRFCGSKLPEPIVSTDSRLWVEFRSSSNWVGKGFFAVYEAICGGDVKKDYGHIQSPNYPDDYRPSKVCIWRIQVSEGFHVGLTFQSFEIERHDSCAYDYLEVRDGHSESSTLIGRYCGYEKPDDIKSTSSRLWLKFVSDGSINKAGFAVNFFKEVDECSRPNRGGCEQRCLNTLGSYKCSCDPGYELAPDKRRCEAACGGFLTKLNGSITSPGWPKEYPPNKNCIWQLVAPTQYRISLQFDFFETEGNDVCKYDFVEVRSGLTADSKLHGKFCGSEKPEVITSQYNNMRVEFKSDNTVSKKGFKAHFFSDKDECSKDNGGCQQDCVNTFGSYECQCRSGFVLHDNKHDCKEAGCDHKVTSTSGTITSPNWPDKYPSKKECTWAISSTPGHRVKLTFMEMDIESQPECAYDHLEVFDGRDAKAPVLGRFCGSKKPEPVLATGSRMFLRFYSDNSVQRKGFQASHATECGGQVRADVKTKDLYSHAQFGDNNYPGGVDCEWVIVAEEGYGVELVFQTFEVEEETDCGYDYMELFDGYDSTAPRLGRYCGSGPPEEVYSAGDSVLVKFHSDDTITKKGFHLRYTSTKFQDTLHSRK

[2] = target: T1, Bone morphogenetic protein 1; experiment: Inhibition of C-terminal FLAG-6x-His epitope tagged and N-terminal human RAGE signal sequence tagged human BMP1 (23 to 721 amino acids) expressed in CHO-E1A cells pre-incubated for 10 mins before promyostatin peptide substrate addition and measured after 30 mins using 50 nM BMP1 by FRET based assay; format: cell-based
[3] = Reduction in PICP levels in human cardiac fibroblasts incubated for 24 to 48 hrs by ELISA; format: functional
[4] = Reduction in mature collagen deposition levels in human cardiac fibroblasts incubated for 24 to 48 hrs by immunostaining based assay; format: functional
Tolloid-like protein 1 = Tolloid-like protein 1 (Homo sapiens, UniProt O43897, I156V/N221S/V284A); experiment: Inhibition of recombinant human TLL1 I156V/N221S/V284A mutant expressed in CHOE1A cells pre-incubated for 10 mins before promyostatin peptide substrate addition and measured after 60 mins by FRET based assay; format: cell-based
Tolloid-like protein 2 = target: T2, Tolloid-like protein 2 (Homo sapiens, UniProt Q9Y6L7); experiment: Inhibition of C-terminal Avi-6x-His epitope tagged and N-terminal human RAGE signal sequence tagged recombinant human TLL2 (26 to 1015 amino acids) expressed in CHOE1A cells incubated for 60 mins with promyostatin peptide substrate by FRET based assay; format: cell-based
T2 sequence (Q9Y6L7 whole entry): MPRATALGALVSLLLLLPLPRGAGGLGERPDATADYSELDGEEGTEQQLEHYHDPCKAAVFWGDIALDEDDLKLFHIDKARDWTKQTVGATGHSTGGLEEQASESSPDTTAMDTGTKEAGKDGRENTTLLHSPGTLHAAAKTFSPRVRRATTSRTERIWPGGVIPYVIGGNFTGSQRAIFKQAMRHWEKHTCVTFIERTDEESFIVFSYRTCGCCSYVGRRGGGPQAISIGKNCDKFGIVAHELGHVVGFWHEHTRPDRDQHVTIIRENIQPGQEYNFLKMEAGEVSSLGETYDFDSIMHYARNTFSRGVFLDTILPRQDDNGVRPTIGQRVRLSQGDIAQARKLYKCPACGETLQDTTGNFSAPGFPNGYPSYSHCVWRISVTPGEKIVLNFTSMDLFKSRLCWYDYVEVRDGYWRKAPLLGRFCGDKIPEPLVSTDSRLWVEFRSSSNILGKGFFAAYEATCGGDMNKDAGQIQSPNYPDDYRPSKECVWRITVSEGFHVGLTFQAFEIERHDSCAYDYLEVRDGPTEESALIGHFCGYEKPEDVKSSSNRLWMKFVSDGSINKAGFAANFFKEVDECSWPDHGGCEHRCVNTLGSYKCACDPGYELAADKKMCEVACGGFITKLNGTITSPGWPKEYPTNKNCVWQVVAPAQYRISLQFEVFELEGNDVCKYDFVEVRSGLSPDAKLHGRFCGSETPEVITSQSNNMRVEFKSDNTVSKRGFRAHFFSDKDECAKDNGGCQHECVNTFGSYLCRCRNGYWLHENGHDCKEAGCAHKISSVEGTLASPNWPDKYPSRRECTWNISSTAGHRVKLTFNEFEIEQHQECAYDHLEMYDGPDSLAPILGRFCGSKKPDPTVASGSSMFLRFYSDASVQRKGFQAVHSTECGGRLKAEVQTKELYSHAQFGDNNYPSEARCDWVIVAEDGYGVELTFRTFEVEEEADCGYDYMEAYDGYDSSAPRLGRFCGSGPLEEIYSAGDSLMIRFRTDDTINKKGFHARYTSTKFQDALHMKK

Tolloid-like protein 1, sequence (O43897 148-1013 I156V/N221S/V284A limits assumed): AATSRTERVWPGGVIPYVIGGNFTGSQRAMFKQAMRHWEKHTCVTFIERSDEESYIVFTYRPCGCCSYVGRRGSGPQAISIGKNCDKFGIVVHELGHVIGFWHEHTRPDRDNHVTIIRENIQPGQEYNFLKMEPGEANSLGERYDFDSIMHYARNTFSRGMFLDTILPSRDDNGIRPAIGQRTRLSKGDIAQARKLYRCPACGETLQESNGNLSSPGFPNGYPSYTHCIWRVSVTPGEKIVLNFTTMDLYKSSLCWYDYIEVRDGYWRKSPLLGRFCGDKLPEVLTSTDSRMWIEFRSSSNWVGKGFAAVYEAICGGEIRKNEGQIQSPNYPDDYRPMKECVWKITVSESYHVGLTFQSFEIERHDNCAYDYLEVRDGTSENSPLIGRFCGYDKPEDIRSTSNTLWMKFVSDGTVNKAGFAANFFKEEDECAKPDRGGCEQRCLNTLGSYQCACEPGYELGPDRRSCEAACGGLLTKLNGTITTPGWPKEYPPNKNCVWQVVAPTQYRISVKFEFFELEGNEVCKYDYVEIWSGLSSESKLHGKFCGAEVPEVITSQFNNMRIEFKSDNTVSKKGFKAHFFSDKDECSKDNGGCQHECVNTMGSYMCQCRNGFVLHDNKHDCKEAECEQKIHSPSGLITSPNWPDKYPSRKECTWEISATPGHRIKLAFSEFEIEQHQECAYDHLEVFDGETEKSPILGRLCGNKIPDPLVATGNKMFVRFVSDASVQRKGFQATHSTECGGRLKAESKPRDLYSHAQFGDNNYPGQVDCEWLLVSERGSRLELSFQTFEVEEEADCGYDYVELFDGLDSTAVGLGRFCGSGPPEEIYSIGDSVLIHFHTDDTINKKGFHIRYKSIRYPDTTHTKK

| Structure (SMILES) | IC50 [1] | IC50 [2] | IC50 [3] | IC50 [4] | IC50 (Tolloid-like protein 1) | IC50 (Tolloid-like protein 2) |
| --- | --- | --- | --- | --- | --- | --- |
| CCCCC[C@@H](C(=O)NCNC(=O)c1cccc(-c2cc(OCC)cc(C(=O)NCCN)c2)n1)[C@@H](CC)N(O)C=O | < 0.126 µM | < 0.251 µM | < 20 µM | < 1.58 µM |  |  |
| CCCCC[C@@H](C(=O)NCNC(=O)c1cccc(-c2cc(OCC)cc(P(=O)(O)O)c2)c1)[C@@H](CC)N(O)C=O | < 0.126 µM | < 0.251 µM | < 20 µM |  | < 0.398 µM | < 0.631 µM |
| CCCCC[C@H](CN(O)C=O)C(=O)NCNC(=O)c1ccc(F)c(-c2ccccc2)n1 | < 0.126 µM | < 0.251 µM | < 20 µM |  | < 0.398 µM | < 0.631 µM |
| CCCCC[C@@H](C(=O)NCNC(=O)c1cccc(-c2ccc(F)c(C(=O)O)c2)n1)[C@@H](CC)N(O)C=O | < 0.126 µM | < 0.251 µM | < 20 µM |  | < 0.398 µM | < 0.631 µM |
| CCCCC[C@@H](C(=O)NCNC(=O)c1cccc(-c2ccc(C(=O)N[C@@H](CC(=O)O)C(=O)O)c(OCC)c2)c1)[C@@H](CC)N(O)C=O | < 0.126 µM | < 0.251 µM | < 20 µM |  | < 0.398 µM | < 0.631 µM |
| CCOc1cc(-c2cccc(C(=O)NCNC(=O)[C@H](CCc3ccccc3)[C@@H](CC)N(O)C=O)n2)ccc1C(=O)O | < 0.126 µM | < 0.251 µM | < 20 µM | < 1.58 µM |  |  |
| O=CN(O)C[C@@H](CC1CCCC1)C(=O)NCNC(=O)c1cccc(-c2cccc(O)c2)c1 | < 0.126 µM | < 0.251 µM | < 20 µM |  | < 0.398 µM | < 0.631 µM |
| CCCCC[C@H](CN(O)C=O)C(=O)NCNC(=O)c1cccc(-c2cccnc2)n1 | < 0.126 µM | < 0.251 µM | < 20 µM |  | < 0.398 µM | < 0.631 µM |
| CCCCC[C@H](CN(O)C=O)C(=O)NCNC(=O)c1cccc(-c2nnn[nH]2)c1 | < 0.126 µM | < 0.251 µM | < 20 µM |  | < 0.398 µM | < 0.631 µM |
| CCCCC[C@H](CN(O)C=O)C(=O)NCNC(=O)c1cccc(-c2cccc(OC)c2)c1 | < 0.126 µM | < 0.251 µM | < 20 µM |  | < 0.398 µM | < 0.631 µM |
| CCCCC[C@@H](C(=O)NCNC(=O)c1cccc(-c2cc(OCC)cc(C(=O)O)c2O)n1)[C@@H](CC)N(O)C=O | < 0.126 µM | < 0.251 µM | < 20 µM |  | < 0.398 µM | < 0.631 µM |
| CCCCC[C@H](CN(O)C=O)C(=O)NCNC(=O)c1cccc(-c2ccnn2CC)c1 | < 0.126 µM | < 0.251 µM | < 20 µM |  | < 0.398 µM | < 0.631 µM |
| CCCCC[C@H](CN(O)C=O)C(=O)NCNC(=O)c1cccc(-c2ccc(F)c(OC)c2)c1 | < 0.126 µM | < 0.251 µM | < 20 µM |  | < 0.398 µM | < 0.631 µM |
| CCOc1cccc(-c2cccc(C(=O)NCNC(=O)[C@H](CC3CCCC3)CN(O)C=O)c2)c1 | < 0.126 µM | < 0.251 µM | < 20 µM |  | < 0.398 µM | < 0.631 µM |

Source: ChEMBL document CHEMBL4476883, “Hydroxy formamide derivatives and their use” (2017)
